Source: ChEMBL document CHEMBL1201862, “PubChem BioAssay data set” (2004)
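48-hour exposure; five concentrations; linearly interpolated endpoints. GI50 is the concentration that inhibits growth by half.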 Active and inactive are the calls of the source. Rule as the data show it: active = GI50 up to about 1.1 µM and inactive = higher.

Key:
Assay in all cases: NCI tumour cell line growth inhibition, 48 h
A549 = test system: A549
ACHN = test system: ACHN
COLO 205 = test system: COLO 205
M14 = test system: M14
MOLT-4 = test system: MOLT-4
NCI-H460 = test system: NCI-H460
OVCAR-4 = test system: OVCAR-4
OVCAR-8 = test system: OVCAR-8
RPMI-8226 = test system: RPMI-8226
SF-268 = test system: SF-268
SK-MEL-28 = test system: SK-MEL-28
SN12C = test system: SN12C
SNB-19 = test system: SNB-19
U-251 = test system: U-251
UACC-257 = test system: UACC-257
A498 = test system: A498
LOX IMVI = test system: LOX IMVI

Measured: GI50

CC(C)(C)CC(C)(C)c1cc2c(O)c(c1)Cc1cc(C(C)(C)CC(C)(C)C)cc(c1O)Cc1cc(C(C)(C)CC(C)(C)C)cc(c1O)Cc1cc(C(C)(C)CC(C)(C)C)cc(c1O)Cc1cc(C(C)(C)CC(C)(C)C)cc(c1O)Cc1cc(C(C)(C)CC(C)(C)C)cc(c1O)Cc1cc(C(C)(C)CC(C)(C)C)cc(c1O)Cc1cc(C(C)(C)CC(C)(C)C)cc(c1O)C2
inactive: A549 > 100 µM | ACHN > 100 µM | COLO 205 > 100 µM | M14 > 100 µM | MOLT-4 > 100 µM | NCI-H460 > 100 µM | OVCAR-4 > 100 µM | OVCAR-8 > 100 µM | RPMI-8226 > 100 µM | SF-268 > 100 µM | SK-MEL-28 > 100 µM | SN12C > 100 µM | SNB-19 > 100 µM | U-251 > 100 µM | UACC-257 > 100 µM

O=C(OCc1ccccc1)N1N=NC2C1C1CC(OCc3ccccc3)(OCc3ccccc3)C2O1 (configuration not stated)
inactive: A498 > 100 µM | A549 > 100 µM | ACHN > 100 µM | COLO 205 > 100 µM | LOX IMVI > 100 µM | M14 > 100 µM | MOLT-4 > 100 µM | NCI-H460 > 100 µM | OVCAR-4 > 100 µM | RPMI-8226 > 100 µM | SF-268 > 100 µM | SK-MEL-28 > 100 µM | SN12C > 100 µM | U-251 > 100 µM | UACC-257 > 100 µM

Cc1cc(N(CCC#N)CCC#N)ccc1/C=N\c1ccc(C(=O)NN2C(=O)/C(=C/c3ccc(N(CCC#N)CCC#N)cc3)N=C2c2cc([N+](=O)[O-])ccc2Cl)cc1
inactive: A498 > 100 µM | A549 > 100 µM | ACHN 53.8 µM | COLO 205 > 100 µM | LOX IMVI > 100 µM | M14 62.7 µM | NCI-H460 > 100 µM | OVCAR-4 > 100 µM | OVCAR-8 > 100 µM | RPMI-8226 > 100 µM | SF-268 > 100 µM | SK-MEL-28 > 100 µM | SN12C > 100 µM | SNB-19 > 100 µM | U-251 > 100 µM | UACC-257 > 100 µM

COc1cc(Nc2nc3cc(C)ccc3nc2-c2ccccc2)cc(OC)c1OC
inactive: A498 45.6 µM | A549 29.8 µM | ACHN 26.7 µM | COLO 205 20.2 µM | LOX IMVI 27.2 µM | M14 29.3 µM | MOLT-4 18.3 µM | NCI-H460 15.8 µM | OVCAR-4 33 µM | OVCAR-8 36.5 µM | SF-268 11.2 µM | SK-MEL-28 16.6 µM | SN12C 28.7 µM | SNB-19 57.4 µM | U-251 35 µM | UACC-257 47.5 µM

CC1=CC(C)(c2c[nH]c3ccccc23)CC(C)(C)c2c1[nH]c1ccccc21 (configuration not stated)
inactive: A498 17.7 µM | A549 14 µM | ACHN 17.2 µM | LOX IMVI 15.2 µM | M14 17.9 µM | MOLT-4 6.93 µM | NCI-H460 17 µM | OVCAR-4 13.4 µM | OVCAR-8 13.7 µM | RPMI-8226 11.9 µM | SF-268 25.1 µM | SK-MEL-28 14.5 µM | SN12C 14.3 µM | SNB-19 26.5 µM | U-251 15.9 µM | UACC-257 20.3 µM

Cc1nc2c(n1C(C)(C)C)C(=O)c1ccccc1C2=O
inactive: A549 92 µM | ACHN 48.6 µM | COLO 205 64.1 µM | LOX IMVI 41.5 µM | M14 > 100 µM | MOLT-4 49 µM | NCI-H460 36.7 µM | OVCAR-4 92.9 µM | OVCAR-8 56.8 µM | SF-268 54.5 µM | SK-MEL-28 > 100 µM | SN12C 50.5 µM | SNB-19 > 100 µM | U-251 84.5 µM | UACC-257 42.6 µM

CC(C)[C@H]1CO[C@]2(C)[C@@H]3CN(Cc4ccccc4)C[C@@H]3C(=O)N12
inactive: A549 > 100 µM | ACHN > 100 µM | COLO 205 > 100 µM | M14 > 100 µM | MOLT-4 > 100 µM | NCI-H460 > 100 µM | OVCAR-4 > 100 µM | OVCAR-8 > 100 µM | RPMI-8226 > 100 µM | SF-268 > 100 µM | SK-MEL-28 > 100 µM | SN12C > 100 µM | SNB-19 > 100 µM | U-251 > 100 µM | UACC-257 > 100 µM

O=S(=O)(N/N=C/c1cccc(Cl)c1Cl)c1ccccc1
inactive: A498 40.8 µM | A549 > 100 µM | ACHN 55 µM | COLO 205 89.7 µM | LOX IMVI 68.7 µM | M14 > 100 µM | MOLT-4 26.9 µM | NCI-H460 > 100 µM | OVCAR-4 > 100 µM | OVCAR-8 78.2 µM | RPMI-8226 66.2 µM | SF-268 35.5 µM | SK-MEL-28 > 100 µM | SN12C 46 µM | U-251 90.4 µM | UACC-257 48 µM

COc1ccc(/C=C(\NC(=O)c2ccccc2)c2nc3ccccc3[nH]2)cc1
inactive: A498 > 100 µM | A549 41.6 µM | ACHN 42.6 µM | COLO 205 24 µM | M14 33.4 µM | MOLT-4 24.5 µM | NCI-H460 34.2 µM | OVCAR-4 17.3 µM | OVCAR-8 39.3 µM | RPMI-8226 18.9 µM | SF-268 37 µM | SK-MEL-28 14.6 µM | SN12C 41.3 µM | SNB-19 37.3 µM | U-251 30.3 µM | UACC-257 23.8 µM

COc1cc2cccc(/N=C/c3c(Br)ccc(OC)c3OC(C)C)c2cc1OC
inactive: A498 > 100 µM | A549 82.4 µM | ACHN 70.3 µM | COLO 205 > 100 µM | M14 27.1 µM | MOLT-4 28.3 µM | NCI-H460 > 100 µM | OVCAR-4 33 µM | OVCAR-8 44.4 µM | RPMI-8226 22.1 µM | SF-268 36 µM | SK-MEL-28 41.6 µM | SN12C > 100 µM | SNB-19 > 100 µM | U-251 32.8 µM | UACC-257 35.2 µM

O=c1[nH]c(-c2ccc(-c3nc4cc([N+](=O)[O-])ccc4c(=O)[nH]3)cc2)nc2cc([N+](=O)[O-])ccc12
inactive: A498 16 µM | A549 > 100 µM | ACHN > 100 µM | COLO 205 > 100 µM | LOX IMVI > 100 µM | M14 > 100 µM | MOLT-4 > 100 µM | NCI-H460 > 100 µM | OVCAR-4 48.8 µM | OVCAR-8 > 100 µM | RPMI-8226 > 100 µM | SK-MEL-28 > 100 µM | SN12C > 100 µM | SNB-19 > 100 µM | U-251 > 100 µM | UACC-257 > 100 µM

C[C@]12CC/C(=N\OC(=O)Nc3ccccc3)C=C1CC[C@@H]1C2CC[C@@]2(C)C1CC[C@@H]2OC(=O)Nc1ccccc1 (some centres not stated)
inactive: A498 92.9 µM | A549 > 100 µM | ACHN 99.3 µM | COLO 205 > 100 µM | LOX IMVI > 100 µM | M14 35.9 µM | MOLT-4 > 100 µM | NCI-H460 > 100 µM | OVCAR-4 > 100 µM | OVCAR-8 > 100 µM | RPMI-8226 15.4 µM | SF-268 > 100 µM | SN12C 11.7 µM | SNB-19 > 100 µM | U-251 > 100 µM
